Test results taken from US20230340011A1 (Asteroid Therapeutics, priority 2022, published 2023).
Counter-ions that a name gives are not always drawn.

Assays:
SREBP-2 = SREBP-2 (Homo sapiens (Human), UniProt Q12772); assay: In vitro assay SREBP-2: PathHunter U2OS SREBP-2 Nuclear Translocation Cell Line, U18666A-stimulated; format: cell-based; conditions: PathHunter U2OS SREBP-2 nuclear translocation cells, U18666A 10 μM, overnight (16 hours)
LXRβ = LXRβ (Homo sapiens (Human), UniProt P55055); assay: In vitro assay LXRβ: PathHunter NHR CHO cells, LXRβ / Steroid Receptor Co-activator Peptide enzyme fragment complementation; format: cell-based; conditions: PathHunter NHR CHO cells, full-length human LXRβ and SRCP, chemiluminescent signal; read-out: LXRβ PPI
In short: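 Enzyme fragment complementation read-out: CHO cells stably expressing ProLink-tagged full-length human LXRβ plus nuclear enzyme acceptor–SRCP fusion, seeded and held overnight at 37° C. Medium with charcoal-dextran filtered serum; final vehicle 1%. Chemiluminescence measured after signal generation.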

Chain of LXRβ (P55055 whole entry, the tested form may be a part): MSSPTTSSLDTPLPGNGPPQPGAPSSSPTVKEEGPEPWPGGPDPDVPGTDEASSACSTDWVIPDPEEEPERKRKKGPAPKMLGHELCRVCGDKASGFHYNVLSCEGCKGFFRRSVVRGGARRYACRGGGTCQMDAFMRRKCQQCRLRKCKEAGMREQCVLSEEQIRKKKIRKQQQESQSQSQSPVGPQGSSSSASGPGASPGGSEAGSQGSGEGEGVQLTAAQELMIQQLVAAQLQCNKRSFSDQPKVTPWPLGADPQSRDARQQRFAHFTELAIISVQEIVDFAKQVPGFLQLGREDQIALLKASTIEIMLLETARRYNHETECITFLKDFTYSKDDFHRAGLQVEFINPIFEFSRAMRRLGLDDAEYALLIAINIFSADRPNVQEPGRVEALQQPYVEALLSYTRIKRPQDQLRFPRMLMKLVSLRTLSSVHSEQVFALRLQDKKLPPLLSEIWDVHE

| SMILES | IC50 (SREBP-2) [nM] | EC50 (LXRβ) [nM] |
| --- | --- | --- |
| C[C@H](CCC(=O)N1CC[C@H](Oc2ccncc2)C[C@@H]1C)[C@H]1CC[C@H]2[C@@H]3CC=C4C[C@@H](O)CC[C@]4(C)[C@H]3CC[C@]12C [Example 585, (R)-4-((3S,8S,9S,10R,13R,14S,17R)-3-hydroxy-10,13-dimethyl-2,3,4,7,8,9,10,11,12,13,14,15,16,17-tetradecahydro-1H-cyclopenta[a]phenanthren-17-yl)-1-((2S,4S)-2-methyl-4-(pyridin-4-yloxy)piperidin-1-yl)pentan-1-one] | < 250 | 250 to 1000 |
| COc1ncccc1N1CCN(C(=O)CC[C@@H](C)[C@H]2CC[C@H]3[C@@H]4CC=C5C[C@@H](O)CC[C@]5(C)[C@H]4CC[C@]23C)CC1 [Example 612, (R)-4-((3S,8S,9S,10R,13R,14S,17R)-3-hydroxy-10,13-dimethyl-2,3,4,7,8,9,10,11,12,13,14,15,16,17-tetradecahydro-1H-cyclopenta[a]phenanthren-17-yl)-1-(4-(2-methoxypyridin-3-yl)piperazin-1-yl)pentan-1-one] | < 250 | > 10000 |
| COc1cccc(N2CCN(C(=O)CC[C@@H](C)[C@H]3CC[C@H]4[C@@H]5CC=C6C[C@@H](O)CC[C@]6(C)[C@H]5CC[C@]34C)CC2)n1 [Example 659, (R)-4-((3S,8S,9S,10R,13R,14S,17R)-3-hydroxy-10,13-dimethyl-2,3,4,7,8,9,10,11,12,13,14,15,16,17-tetradecahydro-1H-cyclopenta[a]phenanthren-17-yl)-1-(4-(6-methoxypyridin-2-yl)piperazin-1-yl)pentan-1-one] | < 250 | > 10000 |
| C[C@H](CCC(=O)N(C)OCCN)[C@H]1CC[C@H]2[C@@H]3CC=C4C[C@@H](O)CC[C@]4(C)[C@H]3CC[C@]12C [Example 28, (R)—N-(2-aminoethoxy)-4-((3S,8S,9S,10R,13R,14S,17R)-3-hydroxy-10,13-dimethyl-2,3,4,7,8,9,10,11,12,13,14,15,16,17-tetradecahydro-1H-cyclopenta[a]phenanthren-17-yl)-N-methylpentanamide hydrochloride] | 250 to 1000 | > 10000 |
| C[C@H](CCC(=O)N1CCCC(C)(CO)CC1)[C@H]1CC[C@H]2[C@@H]3CC=C4C[C@@H](O)CC[C@]4(C)[C@H]3CC[C@]12C (stereo partly drawn) [Example 375, (4R)-4-((3S,8S,9S,10R,13R,14S,17R)-3-hydroxy-10,13-dimethyl-2,3,4,7,8,9,10,11,12,13,14,15,16,17-tetradecahydro-1H-cyclopenta[a]phenanthren-17-yl)-1-(4-(hydroxymethyl)-4-methylazepan-1-yl)pentan-1-one] | < 250 | > 10000 |
| C[C@H](CCc1cccc(C(F)(F)F)n1)[C@H]1CC[C@H]2[C@@H]3CC=C4C[C@@H](O)CC[C@]4(C)[C@H]3CC[C@]12C [Example 166, (3S,8S,9S,10R,13R,14S,17R)-10,13-dimethyl-17-((R)-4-(6-(trifluoromethyl)pyridin-2-yl)butan-2-yl)-2,3,4,7,8,9,10,11,12,13,14,15,16,17-tetradecahydro-1H-cyclopenta[a]phenanthren-3-ol] | 250 to 1000 | > 10000 |
| CC(O)c1cccnc1CC[C@@H](C)[C@H]1CC[C@H]2[C@@H]3CC=C4C[C@@H](O)CC[C@]4(C)[C@H]3CC[C@]12C (stereo partly drawn) [Example 249, (3S,8S,9S,10R,13R,14S,17R)-17-((2R)-4-(3-(1-hydroxyethyl)pyridin-2-yl)butan-2-yl)-10,13-dimethyl-2,3,4,7,8,9,10,11,12,13,14,15,16,17-tetradecahydro-1H-cyclopenta[a]phenanthren-3-ol] | < 250 | < 250 |
| C[C@H](CCC(=O)N1CCN(C(=O)N2CCCC2)[C@@H](C)C1)[C@H]1CC[C@H]2[C@@H]3CC=C4C[C@@H](O)CC[C@]4(C)[C@H]3CC[C@]12C [Example 654, (4R)-4-[(1R,3aS,3bS,7S,9aR,9bS,11aR)-7-hydroxy-9a,11a-dimethyl-1H,2H,3H,3aH,3bH,4H,6H,7H,8H,9H,9aH,9bH,10H,11H,11aH-cyclopenta[a]phenanthren-1-yl]-1-[(3 S)-3-methyl-4-(pyrrolidine-1-carbonyl)piperazin-1-yl]pentan-1-one] | < 250 | > 10000 |
| C[C@H](CCC(=O)N1CCN(C(=O)c2ccns2)CC1)[C@H]1CC[C@H]2[C@@H]3CC=C4C[C@@H](O)CC[C@]4(C)[C@H]3CC[C@]12C [Example 311, (R)-4-((3S,8S,9S,10R,13R,14S,17R)-3-hydroxy-10,13-dimethyl-2,3,4,7,8,9,10,11,12,13,14,15,16,17-tetradecahydro-1H-cyclopenta[a]phenanthren-17-yl)-1-(4-(isothiazole-5-carbonyl)piperazin-1-yl)pentan-1-one] | < 250 | > 10000 |
| CNC(=O)c1cccnc1OC[C@@H](C)[C@H]1CC[C@H]2[C@@H]3CC=C4C[C@@H](O)CC[C@]4(C)[C@H]3CC[C@]12C [Example 253, 2-((S)-2-((3S,8S,9S,10R,13S,14S,17R)-3-hydroxy-10,13-dimethyl-2,3,4,7,8,9,10,11,12,13,14,15,16,17-tetradecahydro-1H-cyclopenta[a]phenanthren-17-yl)propoxy)-N-methylnicotinamide] | < 250 | > 10000 |
| Cc1nccc(N2CCN(C(=O)CC[C@@H](C)[C@H]3CC[C@H]4[C@@H]5CC=C6C[C@@H](O)CC[C@]6(C)[C@H]5CC[C@]34C)CC2)n1 [Example 205, (R)-4-((3S,8S,9S,10R,13R,14S,17R)-3-hydroxy-10,13-dimethyl-2,3,4,7,8,9,10,11,12,13,14,15,16,17-tetradecahydro-1H-cyclopenta[a]phenanthren-17-yl)-1-(4-(2-methylpyrimidin-4-yl)piperazin-1-yl)pentan-1-one] | < 250 | > 10000 |
| C[C@H](CCC(=O)N1CCN(c2nccc3ccncc23)CC1)[C@H]1CC[C@H]2[C@@H]3CC=C4C[C@@H](O)CC[C@]4(C)[C@H]3CC[C@]12C [Example 628, (R)-1-(4-(2,7-naphthyridin-1-yl)piperazin-1-yl)-4-((3S,8S,9S,10R,13R,14S,17R)-3-hydroxy-10,13-dimethyl-2,3,4,7,8,9,10,11,12,13,14,15,16,17-tetradecahydro-1H-cyclopenta[a]phenanthren-17-yl)pentan-1-one] | < 250 | > 10000 |
| C[C@H](CCC(=O)N1CCN(C(=O)c2cn(C)cn2)CC1)[C@H]1CC[C@H]2[C@@H]3CC=C4C[C@@H](O)CC[C@]4(C)[C@H]3CC[C@]12C [Example 538, (4R)-4-[(1R,3aS,3bS,7S,9aR,9bS,11aR)-7-hydroxy-9a,11a-dimethyl-1H,2H,3H,3aH,3bH,4H,6H,7H,8H,9H,9aH,9bH,10H,11H,11aH-cyclopenta[a]phenanthren-1-yl]-1-[4-(1-methyl-1H-imidazole-4-carbonyl)piperazin-1-yl]pentan-1-one] | < 250 | > 10000 |
| Cc1c(N2CCN(C(=O)CC[C@@H](C)[C@H]3CC[C@H]4[C@@H]5CC=C6C[C@@H](O)CC[C@]6(C)[C@H]5CC[C@]34C)CC2)cnn1C [Example 603, (R)-1-(4-(1,5-dimethyl-1H-pyrazol-4-yl)piperazin-1-yl)-4-((3S,8S,9S,10R,13R,14S,17R)-3-hydroxy-10,13-dimethyl-2,3,4,7,8,9,10,11,12,13,14,15,16,17-tetradecahydro-1H-cyclopenta[a]phenanthren-17-yl)pentan-1-one] | < 250 | > 10000 |
